Measurements taken from patent US20250360177A1, “FERMENTATION PRODUCT FOR THE TREATMENT OF INFLAMMATORY DISEASES” (ALFASIGMA S.P.A., priority 2022, published 2025).

What was measured:
IL-10 = IL-10 ELISA in LPS-stimulated RAW264.7 macrophages; format: cell-based; settings: LPS 24 hours
Procedure: Each solution was centrifuged for 20 min at 2500 rpm, the insoluble residues discarded and the supernatant filtered on 0.22-μm PES filters. […] The cells were divided into 5 groups and each group was treated for 2 hours with […] of each of the Solutions obtained from the plant extracts (Sol. Ex1-Ex5). […] At the end of incubation, the supernatants were collected and analyzed by ELISA assay (Invitrogen kit) to detect the amount of IL-10.

[1] = system: TNBS-induced ulcerative colitis mouse model; assay: TNBS-induced ulcerative colitis in mice, plant extract solutions; format: in vivo, C57BL/6 mice; settings: TNBS 2 mg/mouse i.r.; 100 mg/kg gavage; day 3
Procedure: Ulcerative colitis was induced in a mouse model by administration of 2,4,6-trinitrobenzenesulfonic acid (TNBS) (Yang et al., Scientific Reports, 2016 6: 29716). Male C57BL/6 mice aged 6-8 weeks were divided into groups of 8 mice each. Solutions obtained from the plant extracts (Sol. […] Ex-1 (Scutellaria baicalensis Georgi)/600μL/mouse per gavage • Group E: TNBS 2 mg/mouse in 100 μL i.r.+Sol. Ex-2 (Phaseolus radiatus)/[…]/mouse per gavage • Group F: TNBS 2 mg/mouse in 100 μL i.r.+Sol. Ex-3 (Curcuma longa)/600 μL/mouse per gavage • Group G: TNBS 2 mg/mouse in 100 μL i.r.+Sol. Ex-5 (Broccoli sprouts)/600 μL/mouse per gavage. Mice were sacrificed 6 h after the last administration by cervical dislocation.

IL-1beta mRNA = IL-1beta mRNA transcription in LPS-stimulated RAW264.7 macrophages (Real-Time PCR); format: cell-based; settings: 0.1 mM, LPS 24 hours
Procedure: The anti-inflammatory activity of the fermentation product in lyophilic form of L. brevis DSM 33682 obtained in the presence of Phaseolus radiatus sprout extract (Lio-Prob1) according to Example 5, and the product obtained without Phaseolus radiatus sprout extract (Lio-Prob2) according to Example 6, were analyzed by means of determination of the amount of IL-1beta mRNA.
3×10^5 Cells/well of RAW264.7 macrophages (ATCC) were seeded on a 24-well plate.
Ten μl of lipopolysaccharide (LPS) from Sigma-Aldrich n.2630 (10 μg/mL) was added to each well and incubated at 37° C. in a 5% CO2 incubator for 24 hours.
At the end of incubation, macrophage RNA was extracted and analysed by Real-Time PCR to detect the gene transcription level of the proinflammatory cytokine IL-1beta, calculated as the mean value for the treated groups compared with macrophages treated with LPS alone. In particular, total RNA was isolated from each sample using the mini RNeasy kit (QiaGen GmbH, Hilden, Germany), and 1ug of total RNA was reverse transcribed by IScript™ cDNA Synthesis Kit (BioRad, Hercules, CA, USA). Real-time PCR was carried out by a BioRad CFX96 Touch™ Real-Time PCR Detection System using SsoAdvanced Universal SYBR Green super Mix (BioRad). The expression level of each mRNA was assessed using the ΔΔCT method, and Gapdh was used as housekeeping gene for normalization. The following primers were used.

[2] = system: TNBS-induced ulcerative colitis mouse model; assay: TNBS-induced ulcerative colitis in mice, DAI score and colon length (Example 6); format: in vivo, C57BL/6 mice; settings: TNBS 2 mg/mouse i.r.; 100 mg/kg per gavage
Procedure: The efficacy of fermentation products of L. brevis DSM 33682 obtained in the presence of Phaseolus radiatus sprout extract (Lio-Prob1) or absence of the extract (Lio-Prob2) was determined by measurement of DAI score and colonic length. Male C57BL/6 mice (Envigo) aged 6-8 weeks (8 mice/group), ulcerative colitis was induced with 2,4,6-trinitrobenzenesulfonic acid (TNBS) (Yang et al., Scientific Reports, 2016 6:29716). […] Mice were sacrificed by cervical dislocation 6 h after the last administration. The disease activity index, expressed by DAI score, of C57BL/6 mice was measured according to the method reported by Yang et al., Scientific Reports, 2016 6:29716.

[3] = system: TNF-α, IL-1β and IL-10 gene expression; assay: Relative quantitative real-time PCR of colonic cells of TNBS-induced colitis mice; format: in vivo, C57BL/6 mice; settings: Lio-Prob1 12 mg/kg or mesalazine 100 mg/kg orally 4 days
Procedure: RNA of colonic cells of C57BL/6 male mice treated according to Example 8 was isolated with Trizol (Life-technologies). […] BIO 65053). Real-time PCR was performed using SYBR green Master Mix (#1725150, Biorad). GAPDH was used as internal control. The relative transcription mRNA level was calculated.

[4] = system: TNBS-induced colitis mice; assay: TNBS-induced colitis in mice, comparison to VSL #3 and E. coli Nissle (Example 12); format: in vivo, C57BL/6 mice; settings: TNBS 2 mg/mouse ir; 100 mg per kg mouse os, 4 days
Procedure: C57BL/6 Male mice aged 7-8 weeks (ENVIGO, Italy) were housed under standard laboratory conditions: light/dark cycles (12/12 hr), ambient temperature 20±2° C., 55% relative air humidity and food (Mucedola RF18) and water ad libitum.
Colitis was induced in the mice as previously described, using TNBS (Yang et al., Scientific Reports, 2016 6:29716).
After 3 h of colitis induction, each group of mice was orally administered with the corresponding treatment for 4 days. During the 4-day trial, the mice were routinely inspected for their body mass, and diarrhea. All mice were sacrificed by cervical dislocation for sample collection at the end of day 4.

Compound: CC(=O)O [Acetate]
- % IL-10 (vs LPS) ± SD (IL-10; 5 mM): 199 ± 14%

Compound: CCCC(=O)O [Butyrate]
- % IL-10 (vs LPS) ± SD (IL-10; 0.62 mM): 268 ± 71%

Compound: Nc1ccc(O)c(C(=O)O)c1 [Mesalazine]
- % IL-10 (vs LPS) ± SD (IL-10; 0.1 mM): 216 ± 55%
- % IL-10 (vs LPS) ± SD (IL-10; 0.2 mM): 269 ± 18%
- colon length (mm) ± SE [1]: 68 ± 1.9 mm
- mRNA IL-1beta transcription inhibition compared to LPS treatment (IL-1beta mRNA): 59%
- DAI score ± SE [2]: 1.1 ± 0.5
- colon length (mm) ± SE [2]: 66.6 ± 0.5 mm
- expression levels of pro-inflammatory genes, including TNF-α and IL-1β (in words) ([3]; colon of TNBS-induced acute colitis mice): reduced the expression levels of pro-inflammatory genes
- expression of IL-10 (in words) ([3]; colon of TNBS-induced colitis mice): increased
- BWL body weight loss % max [4]: 4%

Compound: CCC(=O)O [Propionate]
- % IL-10 (vs LPS) ± SD (IL-10; 10 mM): 135 ± 2%
